Experimental data: patent US5939405A, “Phosphate derivatives of diaryl 1,3,4-oxadiazolone” (priority 1999, dated 1999)

Columns and labels:
[1] = rapid screen of prodrug hydrolysis and drug release in plasma; type: in vitro ADME; conditions: 10 ug/mL in fresh rat plasma at 37° C.; stock 1 mg/mL in PEG-400; analysis 5 minutes after incubation; HPLC
Procedure: A rapid screen to determine the ability of prodrugs to hydrolyze and release the drug (compound of Example 1) is conducted as follows. A 1 mg/mL stock solution of the prodrug is prepared in distilled water or acetonitrile or PEG-400. Plasma from freshly collected rat or human blood is used in this assay. To 1 mL of plasma at 37° C. was added 10 μL of stock solution of prodrug and mixed gently. Immediately after the mixing, 100 μL of plasma was removed and quenched with 300 μL of acetontrile (Zero time sample). Samples were also obtained at 30 minutes and quenched immediately. The quenched samples were centrifuged to obtain a clear supernatant for analysis. The stock solution, T=0 and T=30 samples were analyzed by a HPLC assay that separates the drug from the prodrug. Based on the relative peak areas of prodrug and drug in these samples, different prodrugs are characterized as fast, moderate and slow release agents. For example, in this model, the compound of Example 6 was dissolved in PEG-400 at a concentration of 1 mg/mL and incubated at 10 ug/mL in fresh rat plasma at 37° C.

[2] = tested on: cloned mammalian (mSlo or hSlo) BK channels; experiment: BK-mediated outward current in Xenopus oocytes, two-electrode voltage clamp; type: cell-based; conditions: 1 μM; at least 5 oocytes; mSlo or hSlo expressed in Xenopus oocytes
Procedure: (§1) The ability of the compound of Example 1 to open BK channels and increase whole-cell outward (K^+) BK-mediated currents was assessed under voltage-clamp conditions by determining their ability to increase cloned mammalian (mSlo or hSlo) BK-mediated outward current heterologously expressed in Xenopus oocytes [Butler, A., et al., Science, 261, pp. 221-224 (1993); and Dworetzky, S. I., et al., Mol. Brain Res., 27, pp.189-193 (1994)]. The two BK constructs employed represent nearly structurally identical homologous proteins, and have proven to be pharmacologically identical in our tests. To isolate BK current from native (background, non-BK) current, the specific and potent BK channel-blocking toxin iberiotoxin (IBTX) [Galvez, A., et al., J. Biol. Chem,265, pp. 11083-11090 (1990)] was employed at a supramaximal concentration (50 nM). The relative contribution of BK channels current to total outward current was determined by subtraction of the current remaining in the presence of IBTX (non-BK current) from the current profiles obtained in all other experimental conditions (control, drug, and wash). […]

[3] = tested on: cortical infarct volume; experiment: focal stroke model, permanent MCA and CCA occlusion; type: in vivo; conditions: 10 μg/kg intravenously, single bolus two hours after MCAO; Wistar rat; infarct measured 24 hours after MCAO; vs vehicle-treated (water) control
Procedure: To determine the ability of the compounds of the present invention to reduce cell loss resulting from neuronal ischemia, a standard focal cerebral ischemia is induced by permanent occlusion of the left middle cerebral artery (MCA) and common carotid artery (CCA) with one hour occlusion of the right CCA in the Wistar rat. The surgeries are performed using the sub-temporal approach of A. Tamura, et al., J. Cereb. Blood Flow Metab., 1, pp. 53-60, (1981) and its modifications [K. Osborne, et al., J. Neurol Neurosurg. Psychiatry, 50, pp. 402-410 (1987) and S. Menzies, et al., Neurosurgery, 31, pp. 100-107, (1992).]
The compound of Example 1 was evaluated in the focal stroke model involving permanent occlusion of the left MCA (MCAO) and CCA (CCAO) and temporary occlusion of the right CCA in the Wistar rat. This procedure results in a reliably large neocortical infarct volume that is measured by means of vital dye exclusion in serial slices through the brain 24 hours after MCAO. In the present test, compounds were administered using an i.v. or i.p. route of administration two hours after occlusion.

[4] = tested on: non-BK native currents in the oocytes; experiment: non-BK (IBTX-insensitive) native current in oocytes, voltage clamp; type: cell-based, Xenopus; conditions: at the tested concentration; current remaining in presence of 50 nM IBTX
Procedure: as §1

Row | Compound | conversion of prodrug to the drug (compound of Example 1) [1] | BK current, % of control of IBTX-sensitive current [2] | reduction of cortical infarct volume [3] | effect on non-BK native currents in the oocytes [4]
1 | O=C(COP(=O)(O)O)Oc1ccc(Cl)cc1Cn1nc(-c2ccc(C(F)(F)F)cc2)oc1=O [Example 6, 3-[[5-Chloro-2-[[[(phosphonooxy)methyl]carbonyl]oxy]phenyl]methyl]-5-[4-(trifluoromethyl)phenyl]-1,3,4-oxadiazol-2(3H)-one] | conversion of the compound of Example 6 to the compound of Example 1 |  |  | 
2 | O=c1oc(-c2ccc(C(F)(F)F)cc2)nn1Cc1cc(Cl)ccc1O [Example 1, 3-[(5-Chloro-2-hydroxyphenyl)methyl]-5-[4-(trifluoromethyl)phenyl]-1,3,4-oxadiazol-2(3H)-one] |  | 126 % of control | about 18% | did not effect non-BK native currents
